Reference: patent EP4349409A1, “COMPOUNDS FOR THE MANAGEMENT OF CELL STEMNESS AND INVASION IN CANCER AND RELATED DISEASES” (Instituto Biomar S.A., priority 2022, dated 2024)
pIC50: −log10 of the molar value.

What was measured:
G144 cells [1] = assay: 3D spheroid cell-invasion assay in Matrigel, G144; format: cell-based, human; conditions: 24 h
Protocol: A hallmark of glioblastoma cell infiltration through a 3D environment is the extension of long, thin polarized membrane extensions that explore and penetrate the surrounding environment. The 3D spheroid cell-invasion model consists in generating cell spheroids by suspension culture that are subsequently embedded in a 3D matrix. G144 cells were seeded on non-adherent conditions (without laminin coating) at a cell concentration of 40,000 cells/ml. After 8 days, spheres were embedded in a 2:1 mixture of Matrigel and growth media. Matrigel mix was let to polymerize at 37°C for 30 minutes, and then it was covered with growth media. Migration was monitored by phase-contrast microscopy for 24 h and the area of each sphere at the initial and final time points was measured using the ImageJ software, in order to calculate the ratio between both areas (Figure 10D, Y axis).

G144 R500 = assay: MTT assay, TMZ-resistant clone G144 R500; format: cell-based; conditions: Homo sapiens, 72 hours
From the text: (§1) While the first line therapy of gliomas has proven its effectiveness and improved clinical outcomes, acquired chemoresistance to alkylating agents has been identified as a major cause of treatment failure (Sarkaria et al., 2008). In a murine model of GB, long-term treatment with subtoxic TMZ doses enriched the side population of cancer stem cells, increasing the tumor aggressiveness (Bleau et al., 2009). Thus, we generated TMZ-resistant G144-clones that were selected upon treatment with TMZ either at 500 µM or 700 µM for several months (R500 and R700, respectively). The obtained clones maintained CD133 stem marker expression (Figure 9A). We then analyzed BMT9 dose-dependent effect on cell viability, by MTT assay, comparing the resistant clones to parental cells.

G144 cells [2] = assay: Proliferation rate analysis by p-His-3 immunostaining in G144 cells; format: cell-based, human; conditions: G144, 4.5 µM, 72 h (data not shown)
From the text: It is noteworthy that G144 cells proliferate very slowly and, at maintenance culture conditions, about 90% of the cells are in G1 phase of the cell cycle (data not shown).

G144 = assay: MTT-based cytotoxicity assay, G144; format: cell-based, human; conditions: for pIC50: G144, MTT, 72 h
Protocol: (§2) A dose-response analysis of BMT9 (concentrations ranging from 4.5 µM-18 µM), BCNU (from 150 µM-500 µM) and TMZ (350 µM-700 µM) was performed in two conventional glioblastoma cell lines (T98G, U373) and the GNS cell line G144 by MTT-based cytotoxicity assays (Figure 5A-D). Cells were seeded on p96-well plates and treated with the different compounds for 72 h. Then, the MTT reagent (3-(4,5-Dimethyl-2-thiazolyl)-2,5-diphenyl-2H-tetrazolium bromide diluted in PBS to a concentration of 1mg/ml), was added to each well to a final concentration of 0.33mg/ml, and incubated for 3 h at 37°C. After that, the media was removed, and formazan crystals were solubilized with DMSO. Absorbance was measured at 560 nm using a "Synergy HT" plate reader (Biotek). In the graphs, the Y axis represents the percentage of cell viability relative to non-treated cells. The IC50, when reached are marked by a rectangle. DMSO treatment had no effect on cell viability.
Previous studies have reported that the molecular signature of the GNSC G144 cell line corresponds to a 'proneural' subtype of GB with NSC features (Pollard et al., 2009; Danovi et al., 2013). Thus, to test BMT9 specificity we compared cellular viability when treating CD133-positive cells (either GNSCs or normal human fetal neural stem cells-NSC) versus CD133-negative human embryonic fibroblast (HEFs) (Figure 8A). MTT-based cytotoxicity assay (Figure 7B-D) were performed as previously described.
as §1

[3] = system: p73 transcripts originated from the P1 promoter (TAp73, ΔEx2p73, ΔEx2/3p73); assay: qRT-PCR of p73 transcripts from the P1 promoter in U373 cells; format: cell-based, human; conditions: U373, same conditions as screening, 18S control
Protocol: Expression levels of TAp73 (Figure 2C), ΔEx2p73 (Figure 2D) and ΔEx2/3p73 (Figure 2E) were determined by qRT-qPCR using 18S ribosomal RNA as housekeeping control, and all the expression values were normalized to TAp73 expression in non-treated cells (NT). […] The amino-truncated isoforms that are tumor-specific are vigorously expressed in advanced stages across a variety of highly aggressive human cancers (Knoll et al., 2011; Steder et al., 2013; George et al., 2015; Meier et al., 2016) and promote tumor initiation (Tannapfel et al., 2008) and cancer progression (Engelmann et al., 2015). Moreover, there is a somatic genomic rearrangement of TP73 that generates an oncogenic Ex2/3p73 in small cell lung cancer (George et al., 2015). BMT9 represses the activity of the P1-TP73 promoter, therefore it would be expected to downregulate the expression of any of the isoforms generated from this promoter in a given cell.

T98G = assay: MTT-based cytotoxicity assay, T98G; format: cell-based; conditions: Homo sapiens, 72 h
Protocol: as §2

TAp73 = assay: Western blot of endogenous TAp73 protein in glioblastoma stem cells G144 and G179; format: cell-based, human; conditions: G144 and G179, 72 h; BMT9 2.25 µM, TMZ 350 µM, BCNU 150 µM
Protocol: To specifically address BMT9 effect on endogenous TAp73 protein levels, we performed a Western blot analysis using an anti-TA-specific antibody. Cells were treated for 72 h either with a low dose of BMT9 (2.25 µM), or with TMZ and BCNU at the standard concentrations used in other articles (350 µM and 150 µM, respectively). Protein extracts were obtained and analyzed by Western blot (Figure 4B-C) and densitometric quantification of the autoradiographies was carried out. The ratio of TAp73/GAPDH band intensity was calculated and protein expression levels relative to non-treated (NT) cells were represented (Y axis).

G144 cells [4] = assay: Annexin V / propidium iodide apoptosis flow cytometry in G144 cells; format: cell-based, human; conditions: 48 h
Protocol: For apoptosis induction analysis, the cells were treated with increasing amounts of BMT9 (4.5 µM and 9 µM) and collected 48 h after treatment. Anexin V and propidium iodide staining was performed using the FITC Annexin V Apoptosis Detection Kit I (BD Biosciences), following the manufacturer's instructions. Flow cytometry was performed with the "MACSQuantify Analyzer" (Miltenyi Biotec) and data were analyzed with "MACSQuantify" software (Miltenyi Biotec) (Figure 7A).

Q: How did the “invasion of cells within the matrix surrounding the spheres” value (G144 cells [1]) turn out when C=C1C2CCC(C)(C3COc4c(C)c(OC)c5c(c4C3O)C(O)OC5=O)C1CCC2(C)C (stereo not drawn) [BMT9] was run?
A: The value was “significantly impaired the invasion of cells”.

Q: What about the pIC50 (G144 R500) of the same molecule?
A: The pIC50 was 5.05 to 5.35.

Q: What about the “percentage of cells in mitosis” value (G144 cells [2]) of the same molecule?
A: The value was 0.1%.

Q: And the “concentration as low as which still reduced viability” value (G144; G144, 72 h after treatment)?
A: Its value is 2.25 µM.

Q: What about the pIC50 (G144) of the same molecule?
A: The pIC50 was 5.35.

Q: What about the “cellular viability in long term culture” value (G144; GNSC (G144, CD133-positive), 1.125-4.5 µM) of the same molecule?
A: The value was “stronger effect against GNSC”.

Q: What about the pIC50 (G144; Homo sapiens) of the same molecule?
A: Its pIC50 is > 5.35.

Q: And the “expression levels of TAp73, ΔEx2p73 and ΔEx2/3p73” value [3]?
A: The value was “reduced them all”.

Q: And the pIC50 (T98G)?
A: The pIC50 was < 5.05.

Q: And the “endogenous TAp73 protein levels (TAp73/GAPDH)” value (TAp73)?
A: The value was “reduced effectively TAp73 expression”.

Q: What about the apoptosis induction (G144 cells [4]; G144, 4.5 µM (IC50 dosage)) of the same molecule?
A: The apoptosis induction was “moderate levels of apoptosis”.

Q: What about the apoptosis induction (G144 cells [4]; G144, 9 µM) of the same molecule?
A: The apoptosis induction was “strongly induced cell death”.
